# Active and inactive are the calls of the source. How the calls were made is not given here.
# What was measured:
# [1] = biological target: T1, Androgen receptor (Homo sapiens) (UniProt P10275); test: Agonist activity at human androgen receptor expressed in human HeLa cells assessed as DHT-induced response after 40 hrs by luciferase/beta-galactosidase-based reporter gene assay; assay type: functional, cell-based
# T1 sequence (whole entry): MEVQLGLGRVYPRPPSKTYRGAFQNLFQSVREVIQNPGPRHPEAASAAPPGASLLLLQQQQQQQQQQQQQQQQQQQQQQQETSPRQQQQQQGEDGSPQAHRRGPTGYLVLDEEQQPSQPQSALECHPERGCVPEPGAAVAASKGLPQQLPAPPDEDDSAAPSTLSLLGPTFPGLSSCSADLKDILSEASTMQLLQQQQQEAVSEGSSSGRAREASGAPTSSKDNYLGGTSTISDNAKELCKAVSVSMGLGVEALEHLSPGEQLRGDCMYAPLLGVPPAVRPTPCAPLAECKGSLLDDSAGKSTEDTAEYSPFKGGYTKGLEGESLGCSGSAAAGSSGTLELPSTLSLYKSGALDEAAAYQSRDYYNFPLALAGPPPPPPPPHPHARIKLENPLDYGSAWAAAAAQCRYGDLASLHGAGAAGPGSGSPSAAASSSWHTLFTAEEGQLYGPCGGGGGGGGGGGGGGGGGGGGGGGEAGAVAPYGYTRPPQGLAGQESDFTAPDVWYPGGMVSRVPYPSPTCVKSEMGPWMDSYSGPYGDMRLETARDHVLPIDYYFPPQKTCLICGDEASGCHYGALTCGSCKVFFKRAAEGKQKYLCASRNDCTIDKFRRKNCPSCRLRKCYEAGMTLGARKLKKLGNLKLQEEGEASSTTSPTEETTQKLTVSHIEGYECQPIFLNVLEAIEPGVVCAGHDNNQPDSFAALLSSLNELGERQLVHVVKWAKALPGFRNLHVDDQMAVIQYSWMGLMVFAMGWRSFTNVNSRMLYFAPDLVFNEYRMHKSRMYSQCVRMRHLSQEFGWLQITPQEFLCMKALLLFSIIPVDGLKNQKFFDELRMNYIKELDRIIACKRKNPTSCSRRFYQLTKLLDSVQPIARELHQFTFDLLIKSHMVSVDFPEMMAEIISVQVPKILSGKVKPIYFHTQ
# [2] = Solubility of the compound; assay type: physicochemical
# [3] = biological target: T2, 17-beta-hydroxysteroid dehydrogenase type 1 (Homo sapiens) (UniProt P14061); test: Inhibition of human recombinant 17-beta-HSD1 expressed in human HeLa cells using estrone as substrate preincubated for 30 mins prior substrate addition measured after 120 mins by spectrophotometry; assay type: cell-based
# T2 sequence (whole entry): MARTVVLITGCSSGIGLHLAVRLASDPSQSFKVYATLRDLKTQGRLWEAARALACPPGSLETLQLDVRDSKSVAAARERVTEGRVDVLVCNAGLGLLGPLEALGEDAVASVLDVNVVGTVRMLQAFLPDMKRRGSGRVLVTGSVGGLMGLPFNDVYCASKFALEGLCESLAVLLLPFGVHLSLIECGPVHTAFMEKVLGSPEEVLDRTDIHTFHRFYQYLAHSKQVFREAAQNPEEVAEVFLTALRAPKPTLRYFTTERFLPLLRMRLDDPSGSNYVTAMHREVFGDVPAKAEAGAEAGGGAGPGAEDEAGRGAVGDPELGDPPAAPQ
# [4] = biological target: T3, Estrogen receptor (Homo sapiens) (UniProt P03372); test: Antagonist activity at human ERalpha receptor expressed in human HeLa cells assessed as inhibition of DHT-induced response after 40 hrs by luciferase/beta-galactosidase-based reporter gene assay; assay type: functional, cell-based
# T3 sequence (whole entry): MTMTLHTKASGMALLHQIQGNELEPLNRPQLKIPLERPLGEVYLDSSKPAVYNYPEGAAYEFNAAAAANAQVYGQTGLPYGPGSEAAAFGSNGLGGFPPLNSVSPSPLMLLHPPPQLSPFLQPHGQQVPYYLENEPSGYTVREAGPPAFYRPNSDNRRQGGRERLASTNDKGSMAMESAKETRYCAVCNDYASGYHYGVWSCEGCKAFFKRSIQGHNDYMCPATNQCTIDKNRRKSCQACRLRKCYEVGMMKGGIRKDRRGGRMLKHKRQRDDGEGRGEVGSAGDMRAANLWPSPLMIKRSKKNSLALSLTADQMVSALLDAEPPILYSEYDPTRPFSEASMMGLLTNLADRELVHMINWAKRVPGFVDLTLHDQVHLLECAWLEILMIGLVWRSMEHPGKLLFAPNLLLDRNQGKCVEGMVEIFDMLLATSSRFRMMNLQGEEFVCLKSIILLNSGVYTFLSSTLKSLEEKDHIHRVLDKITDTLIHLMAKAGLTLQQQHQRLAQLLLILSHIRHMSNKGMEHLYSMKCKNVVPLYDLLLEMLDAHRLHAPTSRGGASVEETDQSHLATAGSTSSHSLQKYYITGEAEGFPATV
# [5] = biological target: T4, Glucocorticoid receptor (Homo sapiens) (UniProt P04150); test: Agonist activity at human Glucocorticoid receptor expressed in human HeLa cells assessed as DHT-induced response after 40 hrs by luciferase/beta-galactosidase-based reporter gene assay; assay type: functional, cell-based
# T4 sequence (whole entry): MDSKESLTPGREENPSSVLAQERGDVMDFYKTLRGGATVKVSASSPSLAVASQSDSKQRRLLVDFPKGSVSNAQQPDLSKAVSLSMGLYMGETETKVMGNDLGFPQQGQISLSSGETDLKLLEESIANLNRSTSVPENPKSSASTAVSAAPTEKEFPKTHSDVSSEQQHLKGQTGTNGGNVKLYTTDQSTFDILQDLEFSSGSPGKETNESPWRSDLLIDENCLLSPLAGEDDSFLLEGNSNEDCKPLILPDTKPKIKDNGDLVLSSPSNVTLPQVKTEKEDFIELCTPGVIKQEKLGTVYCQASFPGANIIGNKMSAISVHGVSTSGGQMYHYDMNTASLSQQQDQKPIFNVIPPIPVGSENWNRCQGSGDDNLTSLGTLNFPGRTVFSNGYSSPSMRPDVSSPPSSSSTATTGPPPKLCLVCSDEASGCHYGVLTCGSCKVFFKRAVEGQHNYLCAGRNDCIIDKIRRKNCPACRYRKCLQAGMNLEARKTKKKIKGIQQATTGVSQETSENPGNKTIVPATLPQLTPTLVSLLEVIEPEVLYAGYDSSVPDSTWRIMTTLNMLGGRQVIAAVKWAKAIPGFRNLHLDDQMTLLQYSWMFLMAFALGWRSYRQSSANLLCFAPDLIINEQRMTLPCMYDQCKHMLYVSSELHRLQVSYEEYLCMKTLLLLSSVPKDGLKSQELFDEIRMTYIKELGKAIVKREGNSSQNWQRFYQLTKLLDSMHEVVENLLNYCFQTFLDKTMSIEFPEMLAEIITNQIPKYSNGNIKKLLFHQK
# [6] = biological target: T4, Glucocorticoid receptor (Homo sapiens); test: Antagonist activity at human GR receptor expressed in human HeLa cells assessed as inhibition of DHT-induced response after 40 hrs by luciferase/beta-galactosidase-based reporter gene assay; assay type: functional, cell-based
# [7] = biological target: T1, Androgen receptor (Homo sapiens); test: Antagonist activity at human androgen receptor expressed in human HeLa cells assessed as inhibition of DHT-induced response after 40 hrs by luciferase/beta-galactosidase-based reporter gene assay; assay type: functional, cell-based
# [8] = biological target: T3, Estrogen receptor (Homo sapiens); test: Agonist activity at human Estrogen receptor ERalpha expressed in human HeLa cells assessed as DHT-induced response after 40 hrs by luciferase/beta-galactosidase-based reporter gene assay; assay type: functional, cell-based
# [9] = biological target: T5, 17-beta-hydroxysteroid dehydrogenase type 2 (Homo sapiens) (UniProt P37059); test: Inhibition of human recombinant 17-beta-HSD2 expressed in human HeLa cells using estradiol as substrate preincubated for 30 mins prior substrate addition measured after 120 mins by spectrophotometry; assay type: cell-based
# T5 sequence (whole entry): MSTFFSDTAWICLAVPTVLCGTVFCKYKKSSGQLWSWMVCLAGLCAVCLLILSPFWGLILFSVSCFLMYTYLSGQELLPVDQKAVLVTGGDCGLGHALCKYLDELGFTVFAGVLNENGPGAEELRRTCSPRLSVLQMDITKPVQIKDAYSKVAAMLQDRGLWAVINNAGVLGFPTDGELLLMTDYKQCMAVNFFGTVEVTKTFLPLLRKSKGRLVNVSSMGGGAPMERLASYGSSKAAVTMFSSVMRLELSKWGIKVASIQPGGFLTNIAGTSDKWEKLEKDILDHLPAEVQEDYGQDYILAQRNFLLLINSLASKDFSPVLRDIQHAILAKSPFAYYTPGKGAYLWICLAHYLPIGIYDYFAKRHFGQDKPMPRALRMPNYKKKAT
smiles,measurement,setting,value
COc1ccc(N2C(=O)/C(=C/c3ccc(O)c(Br)c3)OC2=S)cc1,Activity,[1],inactive
same,solubility,[2],< 1 µg/mL
same,inhibition,[3],inactive
same,Activity,[4],inactive
same,Activity,[5],inactive
same,Activity,[6],inactive
same,Activity,[7],inactive
same,Activity,[8],inactive
same,inhibition,[9],inactive

# From ChEMBL document CHEMBL2016457, “Discovery of potent and orally bioavailable 17β-hydroxysteroid dehydrogenase type 3 inhibitors” (Bioorg Med Chem, 2012)
